Measured values published in publication PMC6446940 (ChemMedChem, 2018).

What was measured:
[1] = biological target: HIV-1 Reverse Transcriptase (RT) (Human immunodeficiency virus type 1 group M subtype B, UniProt P04585); experiment: biochemical; assay type: biochemical
[2] = tested on: pseudovirus HIV-1HXB2; experiment: Single-cycle infection assay in TZM-bl cells; details: for antiviral activity (in words): SAR discussion of Table 1
[3] = Cytotoxicity; assay type: cell-based, human; details: human, MT-2 cells, MT-2 CC50, MT-2 cells, MTS; mean ± SD, n=3
[4] = Cytotoxicity; assay type: cell-based; details: human, TZM-bl cells, TZMb-l CC50, TZM-bl cells, 3 days, MTS; mean ± SD, n=3
[5] = tested on: MT-2 cells; experiment: Cytotoxicity; assay type: cell-based, human; details: read-out: MT-2 CC50, MTS, mean ± SD, n=3
[6] = tested on: TZM-bl cells; experiment: Cytotoxicity; assay type: cell-based; details: for CC50: read-out: TZMb-l CC50, TZM-bl cells, 3 days, MTS, mean ± SD, n=3; for cytotoxicity higher compared with the parent compounds: compared with NBD-14122 / NBD-14123; for cytotoxicity became higher: di-fluoro at position 2 of 1,3-benzodioxole, versus non-fluorinated compounds
[7] = tested on: HIV-1IIIB; experiment: Multi-cycle infection assay in MT-2 cells; assay type: cell-based; details: read-out: MT-2 IC50, p24, mean ± SD, n=3

Row | Structure (SMILES) | CC50 at 4 days [3] [µM] | CC50 at 3 days [4] [µM] | CC50 [5] [µM] | CC50 [6] [µM] | IC50 [7] [µM] | other results
1 | CC1(C)CC(NC(=O)C(=O)Nc2ccc(Cl)cc2)CC(C)(C)N1 [NBD-556, reference compound] | – | – | – | – | – | IC50 ([1]; HIV-1 Reverse Transcriptase, mean ± SD, n=3): > 300 µM; activity against HIV-1 RT ([1]; at 300 μM): no activity
2 | Cc1nc(C(CN)NC(=O)C(=O)Nc2ccc3c(c2)OCO3)sc1CO (stereo not drawn) [NBD-14108, N1-(2-amino-1-(5-(hydroxymethyl)-4-methylthiazol-2-yl)ethyl)-N2-(benzo[d][1,3]dioxol-5-yl)oxalamide] | ≥ 650 | ≥ 750 | – | – | – | antiviral activity (in words) [2]: completely lost
3 | Cc1nc(C(CN)NC(=O)c2ccc(-c3ccc4c(c3)OCO4)[nH]2)sc1CO (stereo not drawn) [NBD-14111, N-(2-amino-1-(5-(hydroxymethyl)-4-methylthiazol-2-yl)ethyl)-5-(benzo[d][1,3]dioxol-5-yl)-1H-pyrrole-2-carboxamide] | – | – | 170 ± 9 | 146 ± 5.2 | 9.8 ± 4.8 | antiviral activity (in words) [2]: lost its antiviral activity
4 | Cc1nc(C(NC(=O)c2ccc(-c3ccc4c(c3)OCO4)[nH]2)C(C)(C)N)sc1CO (stereo not drawn) [NBD-14116, N-(2-amino-1-(5-(hydroxymethyl)-4-methylthiazol-2-yl)-2-methylpropyl)-5-(benzo[d][1,3]dioxol-5-yl)-1H-pyrrole-2-carboxamide] | 98 ± 2.2 | 55.2 ± 5.4 | – | – | – | –
5 | Cc1nc(C(NC(=O)c2ccc(-c3ccc4c(c3)OCO4)[nH]2)C(C)(C)N)sc1CO (stereo not drawn) [NBD-14117, N-(2-amino-1-(5-(hydroxymethyl)-4-methylthiazol-2-yl)-2-methylpropyl)-5-(benzo[d][1,3]dioxol-5-yl)-1H-pyrrole-2-carboxamide] | – | – | 98 ± 1.5 | 66.9 ± 1.4 | 2.5 ± 1 | –
6 | CC(C)(N)C(NC(=O)c1ccc(-c2ccc3c(c2)OCO3)[nH]1)c1ncc(CO)s1 (stereo not drawn) [NBD-14118, N-(2-amino-1-(5-(hydroxymethyl)thiazol-2-yl)-2-methylpropyl)-5-(benzo[d][1,3]dioxol-5-yl)-1H-pyrrole-2-carboxamide] | 123 ± 10.5 | 64.3 ± 3.7 | – | – | – | –
7 | CC(C)(N)C(NC(=O)c1ccc(-c2ccc3c(c2)OCO3)[nH]1)c1ncc(CO)s1 (stereo not drawn) [NBD-14119, N-(2-amino-1-(5-(hydroxymethyl)thiazol-2-yl)-2-methylpropyl)-5-(benzo[d][1,3]dioxol-5-yl)-1H-pyrrole-2-carboxamide] | – | – | 106 ± 4.4 | 69.2 ± 3.8 | 2.8 ± 0.9 | improvement in antiviral activity/potency compared with NBD-14123 [2]: ~ 2.3 fold
8 | NCC(NC(=O)c1ccc(-c2ccc3c(c2)OCO3)[nH]1)c1ncc(CO)s1 (stereo not drawn) [NBD-14122, N-(2-amino-1-(5-(hydroxymethyl)thiazol-2-yl)ethyl)-5-(benzo[d][1,3]dioxol-5-yl)-1H-pyrrole-2-carboxamide] | – | – | 183 ± 3 | 154.4 ± 1.5 | 5.1 ± 0.4 | –
9 | NCC(NC(=O)c1ccc(-c2ccc3nsnc3c2)[nH]1)c1ncc(CO)s1 (stereo not drawn) [NBD-14126, N-(2-amino-1-(5-(hydroxymethyl)thiazol-2-yl)ethyl)-5-(benzo[c][1,2,5]thiadiazol-5-yl)-1H-pyrrole-2-carboxamide] | 117 ± 4.3 | 79.9 ± 1 | – | – | – | improvement in antiviral activity compared with NBD-14122 [2]: about 2.8 fold; cytotoxicity higher compared with the parent compounds [6]: about 1.5 fold
10 | NCC(NC(=O)c1ccc(-c2ccc3nsnc3c2)[nH]1)c1ncc(CO)s1 (stereo not drawn) [NBD-14127, N-(2-amino-1-(5-(hydroxymethyl)thiazol-2-yl)ethyl)-5-(benzo[c][1,2,5]thiadiazol-5-yl)-1H-pyrrole-2-carboxamide] | – | – | 137 ± 1.5 | 96.7 ± 2.9 | 7.3 ± 1.5 | improvement in antiviral activity/potency compared with NBD-14123 [2]: ~ 1.6 fold; cytotoxicity higher compared with the parent compounds [6]: about 1.5 fold
11 | CC1(C)Oc2ccc(-c3ccc(C(=O)NC(CN)c4ncc(CO)s4)[nH]3)cc2O1 (stereo not drawn) [NBD-14133, N-(2-amino-1-(5-(hydroxymethyl)thiazol-2-yl)ethyl)-5-(2,2-dimethylbenzo[d][1,3]dioxol-5-yl)-1H-pyrrole-2-carboxamide] | 96.5 ± 1.2 | 64 ± 1.2 | – | – | – | antiviral activity (in words) [2]: lost their antiviral potency
12 | CC1(C)Oc2ccc(-c3ccc(C(=O)NC(CN)c4ncc(CO)s4)[nH]3)cc2O1 (stereo not drawn) [NBD-14134, N-(2-amino-1-(5-(hydroxymethyl)thiazol-2-yl)ethyl)-5-(2,2-dimethylbenzo[d][1,3]dioxol-5-yl)-1H-pyrrole-2-carboxamide] | – | – | 89.3 ± 1.3 | 61.1 ± 1.4 | 15.3 ± 5 | antiviral activity (in words) [2]: lost their antiviral potency
13 | CNCC(NC(=O)c1ccc(-c2ccc3c(c2)OCO3)[nH]1)c1ncc(CO)s1 (stereo not drawn) [NBD-14139, 5-(benzo[d][1,3]dioxol-5-yl)-N-(1-(5-(hydroxymethyl)thiazol-2-yl)-2-(methylamino)ethyl)-1H-pyrrole-2-carboxamide] | 178 ± 8 | 149 ± 11.3 | – | – | – | –
14 | CNCC(NC(=O)c1ccc(-c2ccc3c(c2)OCO3)[nH]1)c1ncc(CO)s1 (stereo not drawn) [NBD-14140, 5-(benzo[d][1,3]dioxol-5-yl)-N-(1-(5-(hydroxymethyl)thiazol-2-yl)-2-(methylamino)ethyl)-1H-pyrrole-2-carboxamide] | – | – | 173 ± 8 | 153 ± 11.5 | 9.32 ± 2.8 | –
15 | NCC(NC(=O)c1ccc(-c2ccc3c(c2)OC(F)(F)O3)[nH]1)c1ncc(CO)s1 (stereo not drawn) [NBD-14144, N-(2-amino-1-(5-(hydroxymethyl)thiazol-2-yl)ethyl)-5-(2,2-difluorobenzo[d][1,3]dioxol-5-yl)-1H-pyrrole-2-carboxamide] | 43.4 ± 3.6 | 37.9 ± 2.4 | – | – | – | improvement in antiviral activity compared with NBD-14122 [2]: ~ 4.5 fold; cytotoxicity became higher [6]: ~ 3.9 fold
16 | NCC(NC(=O)c1ccc(-c2ccc3c(c2)OC(F)(F)O3)[nH]1)c1ncc(CO)s1 (stereo not drawn) [NBD-14145, N-(2-amino-1-(5-(hydroxymethyl)thiazol-2-yl)ethyl)-5-(2,2-difluorobenzo[d][1,3]dioxol-5-yl)-1H-pyrrole-2-carboxamide] | – | – | 41 ± 2.7 | 38.7 ± 1.3 | 3.1 ± 0.5 | improvement in antiviral activity ([2]; di-fluoro at position 2 of 1,3-benzodioxole, comparator not stated): ~ 1.7 fold; cytotoxicity became higher [6]: ~ 3.9 fold
17 | CNCC(NC(=O)c1ccc(-c2ccc3c(c2)OCO3)[nH]1)c1nc(CO)cs1 (stereo not drawn) [NBD-14158, 5-(benzo[d][1,3]dioxol-5-yl)-N-(1-(4-(hydroxymethyl)thiazol-2-yl)-2-(methylamino)ethyl)-1H-pyrrole-2-carboxamide] | 192 ± 4.2 | 157 ± 7.8 | – | – | 9.5 ± 0.5 | –
18 | NCC(NC(=O)c1ccc(-c2ccc3c(c2)OCO3)[nH]1)c1nc(CO)cs1 (stereo not drawn) [NBD-14172, N-(2-amino-1-(4-(hydroxymethyl)thiazol-2-yl)ethyl)-5-(benzo[d][1,3]dioxol-5-yl)-1H-pyrrole-2-carboxamide] | 156 ± 14.3 | 92.3 ± 2.9 | – | – | 2.4 ± 0.3 | improvement in antiviral activity/potency compared with NBD-14123 [2]: about 1.5 fold
19 | NCC(NC(=O)c1ccc(-c2ccc3c(c2)OCO3)[nH]1)c1nc(CO)cs1 (stereo not drawn) [NBD-14173, N-(2-amino-1-(4-(hydroxymethyl)thiazol-2-yl)ethyl)-5-(benzo[d][1,3]dioxol-5-yl)-1H-pyrrole-2-carboxamide] | – | – | 176 ± 4.3 | 105 ± 7.9 | 8.2 ± 2.7 | –
